Measurements: ChEMBL document CHEMBL1146371, “HSP90-like artificial chaperone activity based on indole beta-cyclodextrin” (Bioorg Med Chem, 2007)
Activity calls are given as the source filed them. The calls are words filed in the database; no cut-off is given here.

Assay: Artificial […]-like chaperone activity assessed as prevention of citrate synthase thermal aggregation
Assay type: functional

Row | SMILES | Activity
1 | OC[C@H]1O[C@@H]2O[C@H]3[C@H](O)[C@@H](O)[C@@H](O[C@H]4[C@H](O)[C@@H](O)[C@@H](O[C@H]5[C@H](O)[C@@H](O)[C@@H](O[C@H]6[C@H](O)[C@@H](O)[C@@H](O[C@H]7[C@H](O)[C@@H](O)[C@@H](O[C@H]8[C@H](O)[C@@H](O)[C@@H](O[C@H]1[C@H](O)[C@H]2O)O[C@@H]8CO)O[C@@H]7CO)O[C@@H]6CO)O[C@@H]5CO)O[C@@H]4CO)O[C@@H]3CO | Active
2 | OC[C@H]1O[C@@H]2O[C@H]3[C@H](O)[C@@H](O)[C@@H](O[C@H]4[C@H](O)[C@@H](O)[C@@H](O[C@H]5[C@H](O)[C@@H](O)[C@@H](O[C@H]6[C@H](O)[C@@H](O)[C@@H](O[C@H]7[C@H](O)[C@@H](O)[C@@H](O[C@H]1[C@H](O)[C@H]2O)O[C@@H]7CO)O[C@@H]6CO)O[C@@H]5CO)O[C@@H]4CO)O[C@@H]3CO | inactive
